# Experimental data reported in US11351271B2, “RNA-based logic circuits with RNA binding proteins, aptamers and small molecules” (priority 2014, dated 2022).
# How the values were obtained:
# [1] = system: DDe (human estrogen receptor ligand binding domain) fused to Fluc2; details: C2C12
# DDd-L7Ae [2] = test: DDd-L7Ae OFF switch on replicon in myotubes differentiated from C2C12; format: cell-based
# DDd-L7Ae [3] = system: DDd-L7Ae
compound,measurement,setting,value
"CC/C(=C(\c1ccc(O)cc1)c1ccc(OCCN(C)C)cc1)c1ccccc1 [4-OHT, 4-hydroxytamoxifin]",Increase of DDe-Fluc2 expression compared to no small molecule,[1],6.4 fold
O=C1Nc2ccc3ncsc3c2/C1=C/c1cnc[nH]1 [C16],Effect on expression and fold change of the DDd-L7Ae circuit,DDd-L7Ae [2]; myotubes,increase expression and overall fold change
"COc1cc(Cc2cnc(N)nc2N)cc(OC)c1OC [TMP, trimethoprim]",Repression of reporter upon addition of TMP,DDd-L7Ae [3],22.5 fold
same,Decrease in expression after addition of TMP,"DDd-L7Ae [2]; mouse myotubes, optimized circuit with PKR inhibitors",15 fold
